Assay results: patent publication US20130096166A1 (Clark Atlanta University, priority 2011, published 2013)

Experiments:
cleaved PARP = test: Western blot analysis of cleaved PARP protein expression; assay type: cell-based, human; settings: for effect on camalexin-mediated PARP cleavage: H2O2 with camalexin
C4-2 cells [1] = test: Detection of reactive oxygen species (H2DCFDA oxidation); assay type: cell-based, human
Method: (§1) Cells were plated at a density of 1×10^4 cells well in 96-well black clear bottom plates and left to attach overnight. Baseline ROS levels were assessed in untreated ARCaP Neo, […], and C4-2 cells. Prior to treatment, […] C4-2 cells were starved in serum-free and phenol red free RPMI. […] Procedures were performed following manufacturer's protocol (Molecular Probes®, Invitrogen) with slight modifications. Briefly, cells were loaded with 10 μM (final working concentration) of H2DCFDA in pre-warmed Hanks Balance Salt solution (HBSS) for 45 minutes. This was replaced with experimental media with various treatments as well as untreated controls, for 3 days. H2DCFDA oxidation was measured on a spectrofluorometer (BIOTek Synergy HT, BIOTeK Instruments Inc., Vt.) with excitation […] and emission 528 nm at desired increments.

[2] = Cell viability assay (CellTiter 96 AQueous One, MTS); assay type: cell-based, human; settings: human, ARCaP Neo cells, 3 days, 50 μM H2O2, read-out: decrease in cell viability
Method: (§2) PrEC, ARCaP Neo, ARCaP Snail, LNCaP, and C4-2 cells were plated at a density of 2,000 cells per well in 96-well plates and allowed to attach overnight.

[3] = test system: caspase-3/7 activity in ARCaP Snail cells; test: FACS analysis of caspase-3/7 activity (Dual Sensor Mitocasp assay); assay type: cell-based, human; settings: 3 days
Method: Caspases are generally accepted as the executioners of apoptosis. […] Stained cells were evaluated in an Accuri® C6 Flow Cytometer (Accuri Cytometers Inc., Ann Arbor, Mich.) and analyzed using FlowJo software.

ARCaP Snail cells [4] = test: Detection of reactive oxygen species (H2DCFDA oxidation); assay type: cell-based, human
Method: as §1

ARCaP Snail cells [5] = test: Cell viability assay (CellTiter 96 AQueous One, MTS); assay type: cell-based, human
Method: as §2

caspase-3 = test: Western blot analysis of total caspase-3 protein expression; assay type: cell-based, human
Snail = test: Western blot analysis of Snail protein expression; assay type: cell-based, human; settings: 3 days
Jurkat T-leukemia cells = settings: by increasing ROS and activation of caspases; cited from earlier work
ARCaP Neo cells = test: Cell viability assay (CellTiter 96 AQueous One, MTS); assay type: cell-based, human
Method: as §2

C4-2 cells [6] = test: as above; assay type: cell-based, human
Method: as §2

LNCaP cells = test: as above; assay type: cell-based, human
Method: as §2

Trypanosoma cruzi = settings: cited from earlier work
[7] = 10 mM NAC added to 25 or 50 μM camalexin
[8] = ARCaP Neo cells, 10, 25 and 50 μM

OO [H2O2, Hydrogen peroxide, reference compound]
effect on camalexin-mediated PARP cleavage (cleaved PARP; ARCaP Neo cells): potentiated camalexin-mediated PARP cleavage | effect on camalexin-mediated PARP cleavage (cleaved PARP; LNCaP cells): potentiated camalexin-mediated PARP cleavage | ROS in cells (C4-2 cells [1]; 100 μM H2O2 positive control): significantly increased ROS | cytotoxicity at 3 days, 50 μM [2]: ~50%

CC(=O)N[C@@H](CS)C(=O)O [NAC, N-acetyl cysteine, reference compound]
effect on camalexin-increased cleaved PARP protein expression (cleaved PARP; ARCaP Snail cells, co-treatment with NAC): could be inhibited by co-treatment with NAC | effect on camalexin-induced increase in caspase-3/7 activity ([3]; 25 μM camalexin plus 10 mM NAC): abrogated the percent increase in caspase-3/7 activity | effect on camalexin-mediated ROS (ARCaP Snail cells [4]; [7]): abrogated by NAC | effect on camalexin-mediated ROS (C4-2 cells [1]; [7]): significantly decreased camalexin-mediated ROS | increased viability vs. 25 μM camalexin-only treatment (ARCaP Snail cells [5]; 3 days, 25 μM camalexin with 10 mM NAC, not statistically significant): approximately 15%

c1ccc2c(-c3nccs3)c[nH]c2c1 [camalexin, 3-thiazol-2′yl-indole]
total caspase-3 protein levels (caspase-3; ARCaP Neo cells, 3 days): not in the less aggressive ARCaP Neo or LNCaP cells | total caspase-3 protein levels (caspase-3; ARCaP Snail cells, 3 days (p<0.01 at 50 μM)): induced an increase in total caspase-3 protein levels | total caspase-3 protein levels (caspase-3; C4-2 cells, 3 days): induced an increase in total caspase-3 protein levels | total caspase-3 protein levels (caspase-3; LNCaP cells, 10 μM, 3 days): significant decrease in protein expression | total caspase-3 protein levels (caspase-3; LNCaP cells, 3 days): not in the less aggressive ARCaP Neo or LNCaP cells | cleaved PARP protein expression (cleaved PARP; [8]): very low levels of cleaved PARP protein expression | cleaved PARP protein expression (cleaved PARP; ARCaP Snail cells, 10, 25 and 50 μM vs untreated control): marked increase in levels of cleaved PARP protein expression | PARP protein cleavage (cleaved PARP; C4-2 cells, all 3 camalexin treatments, vs LNCaP cells): marked increase in PARP protein cleavage | Snail protein expression (Snail; [8]): no detectable levels of Snail protein expression | Snail protein expression (Snail; ARCaP Snail cells, 10, 25 and 50 μM): not affected by camalexin treatments | Snail protein expression (Snail; C4-2 cells, 10, 25 and 50 μM): did not affect Snail expression | Snail protein expression (Snail; LNCaP cells, 10 μM): moderate expressing band for Snail protein | fraction of cells with increased caspase-3/7 activity ([3]; 25 μM camalexin, untreated control 21.7%): 34.2% | ROS, as compared to untreated controls (ARCaP Snail cells [4]; 25 μM camalexin): approximately 210% | ROS, as compared to untreated controls (ARCaP Snail cells [4]; 50 μM camalexin): ~350±25% | ROS, of untreated controls (C4-2 cells [1]; 25 μM camalexin): approximately 130±5% | ROS, of untreated controls (C4-2 cells [1]; 50 μM camalexin): ~150±5% | apoptosis (Jurkat T-leukemia cells): induced apoptosis | cell viability (ARCaP Snail cells [5]; day 0): no change in viability | decrease in cell viability (ARCaP Snail cells [5]; day 3, 10 μM): approximately 25% | decrease in cell viability (ARCaP Snail cells [5]; day 3, 25 μM): ~35% | decrease in cell viability (ARCaP Snail cells [5]; day 3, 50 μM): ~35% | cell viability (ARCaP Neo cells; day 0): no change in viability | cell viability (ARCaP Neo cells; day 3, 10, 25 and 50 μM): remained unaffected | cell viability (C4-2 cells [6]; C4-2, day 0): viability was unaffected | decrease in cell viability (C4-2 cells [6]; C4-2, day 3, 10 μM): approximately 40±5% | decrease in cell viability (C4-2 cells [6]; C4-2, day 3, 25 μM): approximately 40±5% | decrease in cell viability (C4-2 cells [6]; C4-2, day 3, 50 μM): approximately 40±5% | cell viability (LNCaP cells; day 0): viability was unaffected | decrease in cell viability (LNCaP cells; day 3, 50 μM): approximately 40±2% | cytostatic/cytotoxic effects (Trypanosoma cruzi): cytostatic/cytotoxic effects
